Experiments:
[1] = target: T1, His-TEV-DYRK1A Kinase domain (aa127-485) (Homo sapiens, UniProt Q13627); test: Kinase ADP assay (ADP Hunter Plus); type: biochemical
T1 construct: His-TEV-DYRK1A Kinase domain (aa127-485); His (N); TEV cleavage site (N)

phospho-Ser520-DYRK1A = target: T2, phospho-Ser520-DYRK1A (Homo sapiens, UniProt Q13627); test: Cellular DYRK1A autophosphorylation assay in U2-OS cells; type: cell-based; conditions: 5 hours exposure, read-out: IC50 (μM) P-Ser520-Dyrk1A-Cell assay
T2 construct: full-length, wild-type human DYRK1A (NM_001396) with an HA tag; expressed in transfected cells; host or cells: human U2-OS osteosarcoma cells, pcDNA3.1 plasmid

SMILES | IC50 [1] [µM] | IC50 (phospho-Ser520-DYRK1A) [µM]
Cc1nc(NCc2cccc3c2OCO3)c2c(-c3ccnc(N)c3)c[nH]c2n1 [Example 127, 5-(2-aminopyridin-4-yl)-N-(1,3-benzodioxol-4-ylmethyl)-2-methyl-7H-pyrrolo[2,3-d]pyrimidin-4-amine] | 0.011 | 0.0169
Cc1nc(NCc2cccc3c2OCO3)c2c(-c3cc(N)nc(N)c3)c[nH]c2n1 [Example 128, 4-{4-[(1,3-benzodioxol-4-ylmethyl)amino]-2-methyl-7H-pyrrolo[2,3-d]pyrimidin-5-yl}pyridine-2,6-diamine] | 0.009 | 0.0093
Nc1cc(-c2c[nH]c3nc(C#CC4CC4)nc(NCc4c(F)cccc4F)c23)ccn1 [Example 152, 5-(2-aminopyridin-4-yl)-2-(cyclopropylethynyl)-N-(2,6-difluorobenzyl)-7H-pyrrolo[2,3-d]pyrimidin-4-amine] | 0.012 | 0.0101
Cc1nc(-c2ccc3c(c2)OC(F)(F)O3)c2c(-c3ccnc(N)c3)c[nH]c2n1 [Example 164, 4-[4-(2,2-difluoro-1,3-benzodioxol-5-yl)-2-methyl-7H-pyrrolo[2,3-d]pyrimidin-5-yl]pyridin-2-amine] | 0.015 | 0.0883
Cc1nc(-c2cccc(C(F)(F)F)c2)c2c(-c3ccnc(N)c3)c[nH]c2n1 [Example 168, 4-{2-methyl-4-[3-(trifluoromethyl)phenyl]-7H-pyrrolo[2,3-d]pyrimidin-5-yl}pyridin-2-amine] | 0.01 | –
Cc1nc(-c2ccc(CN3CCN(C)CC3)cc2)c2c(-c3ccnc(N)c3)c[nH]c2n1 [Example 169, 4-(2-methyl-4-{4-[(4-methylpiperazin-1-yl)methyl]phenyl}-7H-pyrrolo[2,3-d]pyrimidin-5-yl)pyridin-2-amine] | 0.216 | –
Cc1nc(-c2cncc(F)c2)c2c(-c3ccnc(N)c3)c[nH]c2n1 [Example 170] | 1.82 | –
Cc1nc(-c2cccc(N3CCCC3)c2)c2c(-c3ccnc(N)c3)c[nH]c2n1 [Example 171] | 0.033 | –
CCOc1ccc(-c2nc(C)nc3[nH]cc(-c4ccnc(N)c4)c23)cc1 [Example 172] | 0.037 | –
Cc1nc(CN2CCC(F)(F)C2)c2c(-c3ccnc(N)c3)c[nH]c2n1 [Example 176] | 0.196 | –
Cc1nc(-c2cc3ccccc3s2)c2c(-c3ccnc(N)c3)c[nH]c2n1 [Example 182] | 0.013 | 0.0142
Cc1nc(-c2cc3ccccc3o2)c2c(-c3ccnc(N)c3)c[nH]c2n1 [Example 183] | 0.006 | 0.029
Cc1nc(C2CCc3ccccc3C2)c2c(-c3ccnc(N)c3)c[nH]c2n1 (stereo not shown) [Example 188] | 0.07 | –
Cc1nc([C@@H]2CCc3ccccc3C2)c2c(-c3ccnc(N)c3)c[nH]c2n1 [Example 190] | 0.419 | –
Cc1nc(-c2ccc3c(c2)OCO3)c2c(-c3cc(N)nc(N)c3)c[nH]c2n1 [Example 192] | 0.008 | 0.048
Cc1nc(COc2ccccc2C(F)(F)F)c2c(-c3ccnc(N)c3)c[nH]c2n1 [Example 193, 4-(2-methyl-4-{[2-(trifluoromethyl)phenoxy]methyl}-7H-pyrrolo[2,3-d]pyrimidin-5-yl)pyridin-2-amine] | 0.116 | –
Cc1nc(-c2ccc3c(c2)CCCC3)c2c(-c3ccnc(N)c3)c[nH]c2n1 [Example 195] | 0.008 | 0.0071
Cc1nc(C#CC2CC2)c2c(-c3cc(N)nc(N)c3)c[nH]c2n1 [Example 196] | 0.023 | 0.172
COc1ccccc1C#Cc1nc(C)nc2[nH]cc(-c3ccnc(N)c3)c12 [Example 197] | 0.009 | –
Cc1nc(-c2cccc(OCCCN3CCCCC3)c2)c2c(-c3ccnc(N)c3)c[nH]c2n1 [Example 199] | 0.148 | –
Cc1nc(-c2cccc(OCCCN3CCN(C)CC3)c2)c2c(-c3ccnc(N)c3)c[nH]c2n1 [Example 200] | 0.027 | –
Cc1nc(-c2cccc(OCCN(C)C)c2)c2c(-c3ccnc(N)c3)c[nH]c2n1 [Example 203] | 0.155 | –
Cc1nc(-c2ccc3c(c2)OC(F)(F)O3)c2c(-c3ccnc(N)n3)c[nH]c2n1 [Example 210, 4-[4-(2,2-difluoro-1,3-benzodioxol-5-yl)-2-methyl-7H-pyrrolo[2,3-d]pyrimidin-5-yl]pyrimidin-2-amine] | 0.05 | –
C#Cc1nc(N2CCc3ccccc3C2)c2c(-c3ccnc(N)n3)c[nH]c2n1 [Example 211, 4-[4-(3,4-dihydroisoquinolin-2(1H)-yl)-2-ethynyl-7H-pyrrolo[2,3-d]pyrimidin-5-yl]pyrimidin-2-amine] | 0.027 | –
Cc1nc(NCc2c(F)cccc2F)c2c(-c3cc(N)ncn3)c[nH]c2n1 [Example 212, 5-(6-aminopyrimidin-4-yl)-N-(2,6-difluorobenzyl)-2-methyl-7H-pyrrolo[2,3-d]pyrimidin-4-amine] | 0.009 | –
N#Cc1cc(-c2ccc3c(c2)OCO3)c2c(-c3ccnc(N)c3)c[nH]c2n1 [Example 223, 3-(2-aminopyridin-4-yl)-4-(1,3-benzodioxol-5-yl)-1H-pyrrolo[2,3-b]pyridine-6-carbonitrile] | 0.043 | –
Cc1cc(-c2ccc3c(c2)N(C)CCO3)c2c(-c3ccnc(N)c3)c[nH]c2n1 [Example 225, 4-[6-methyl-4-(4-methyl-3,4-dihydro-2H-1,4-benzoxazin-6-yl)-1H-pyrrolo[2,3-b]pyridin-3-yl]pyridin-2-amine] | 0.037 | –

Further molecules by falling IC50 [1], results first:

IC50 [1] [µM] | IC50 (phospho-Ser520-DYRK1A) [µM] | SMILES
0.532 | – | Cc1nc(CN2CCCC(F)(F)C2)c2c(-c3ccnc(N)c3)c[nH]c2n1 [Example 177]
0.242 | – | Cc1cc(-c2cncc(F)c2)c2c(-c3ccnc(N)c3)c[nH]c2n1 [Example 214, 4-[4-(5-fluoropyridin-3-yl)-6-methyl-1H-pyrrolo[2,3-b]pyridin-3-yl]pyridin-2-amine]
0.146 | – | Cc1nc(-c2ccc(C#N)c(F)c2)c2c(-c3ccnc(N)c3)c[nH]c2n1 [Example 175]
0.144 | – | Cc1nc(-c2cccc(OCCN3CCCC3)c2)c2c(-c3ccnc(N)c3)c[nH]c2n1 [Example 202]
0.089 | – | Cc1nc(-c2cccc(OCCN3CCOCC3)c2)c2c(-c3ccnc(N)c3)c[nH]c2n1 [Example 204]
0.079 | – | Cc1nc(-c2cc(F)cc(F)c2)c2c(-c3ccnc(N)c3)c[nH]c2n1 [Example 180]
0.07 | – | Cc1nc(-c2cccc(OCCCN3CCOCC3)c2)c2c(-c3ccnc(N)c3)c[nH]c2n1 [Example 174, 4-(2-methyl-4-{3-[3-(morpholin-4-yl)propoxy]phenyl}-7H-pyrrolo[2,3-d]pyrimidin-5-yl)pyridin-2-amine]
0.062 | – | Cc1nc([C@H]2CCc3ccccc3C2)c2c(-c3ccnc(N)c3)c[nH]c2n1 [Example 189]
0.055 | – | Cc1cc(-c2c[nH]c3nc(C)nc(NCc4c(F)cccc4F)c23)nc(N)n1 [Example 205, 5-(2-amino-6-methylpyrimidin-4-yl)-N-(2,6-difluorobenzyl)-2-methyl-7H-pyrrolo[2,3-d]pyrimidin-4-amine]
0.042 | 0.471 | COc1cccc(C(F)(F)F)c1CNc1nc(C)nc2[nH]cc(-c3ccncc3)c12 [Example 145, N-[2-methoxy-6-(trifluoromethyl)benzyl]-2-methyl-5-(pyridin-4-yl)-7H-pyrrolo[2,3-d]pyrimidin-4-amine]
0.032 | 0.157 | Cc1nc(-c2ccc3c(c2)OCO3)c2c(-c3ccnc(N)n3)c[nH]c2n1 [Example 209, 4-[4-(1,3-benzodioxol-5-yl)-2-methyl-7H-pyrrolo[2,3-d]pyrimidin-5-yl]pyrimidin-2-amine]
0.019 | 0.15 | Cc1nc(-c2cccc(OC(F)(F)F)c2)c2c(-c3ccnc(N)c3)c[nH]c2n1 [Example 181]
0.017 | 0.119 | Cc1nc(C#CC2CC2)c2c(-c3ccnc(N)c3)c[nH]c2n1 [Example 198, 4-[4-(cyclopropylethynyl)-2-methyl-7H-pyrrolo[2,3-d]pyrimidin-5-yl]pyridin-2-amine]
0.013 | 0.053 | Nc1cc(-c2c[nH]c3nc(C#CC4CC4)nc(-c4ccc5c(c4)OCO5)c23)cc(N)n1 [Example 154, 4-[4-(1,3-benzodioxol-5-yl)-2-(cyclopropylethynyl)-7H-pyrrolo[2,3-d]pyrimidin-5-yl]pyridine-2,6-diamine]
0.012 | 0.0187 | Cc1nc(/C=C/c2ccccc2)c2c(-c3ccnc(N)c3)c[nH]c2n1 [Example 159]
0.012 | 0.0319 | Cc1ccc2sc(-c3nc(C)nc4[nH]cc(-c5ccnc(N)c5)c34)cc2c1 [Example 184]
0.012 | – | Cc1nc(-c2cccc(OCCCl)c2)c2c(-c3ccnc(N)c3)c[nH]c2n1 [Example 201]
0.011 | 0.0146 | Nc1cc(-c2c[nH]c3nc(C#CC4CC4)nc(-c4ccc5c(c4)OCO5)c23)ccn1 [Example 153, 4-[4-(1,3-benzodioxol-5-yl)-2-(cyclopropylethynyl)-7H-pyrrolo[2,3-d]pyrimidin-5-yl]pyridin-2-amine]
0.01 | 0.0041 | Cc1nc(NCc2cccc3c2OCO3)c2c(-c3ccnc(N)n3)c[nH]c2n1 [Example 208, 5-(2-aminopyrimidin-4-yl)-N-(1,3-benzodioxol-4-ylmethyl)-2-methyl-7H-pyrrolo[2,3-d]pyrimidin-4-amine]
0.007 | 0.017 | Cc1nc(C#Cc2ccccc2F)c2c(-c3ccnc(N)c3)c[nH]c2n1 [Example 194]
0.006 | 0.0097 | COc1cc(F)ccc1CNc1nc(C)nc2[nH]cc(-c3ccnc(N)c3)c12 [Example 84, 5-(2-aminopyridin-4-yl)-N-(4-fluoro-2-methoxybenzyl)-2-methyl-7H-pyrrolo[2,3-d]pyrimidin-4-amine]
0.006 | 0.0443 | Cc1nc(-c2cc(F)c3c(c2)OCO3)c2c(-c3ccnc(N)c3)c[nH]c2n1 [Example 191]
